Here are results for three compounds from patent US11567085B2, “Photo-cleavable surfactants” (Wisconsin Alumni Research Foundation, priority 2018, dated 2023).

The format of data set [1] is physicochemical. How it is done: Several degradation conditions were compared (i.e., organic vs. aqueous solutions in the presence or absence of acid and reducing agents) to determine the most favorable conditions (FIG. 11).
UV-Vis degradation. […] The samples were diluted to a final volume of 1 mL in H2O. A UV-Vis spectrum was taken from each sample with a Varian Cary 50 UV-Visible spectrophotometer (background correction, medium scan rate, 600-200 nm).

The subject of data set [2] is cardiac tissue proteins. Put plainly: Surfactant-aided protein extraction from insoluble cardiac tissue pellet, SDS-PAGE and protein assay. The following applies: 0.5% surfactant in 25 mM NH4HCO3; SDS-PAGE and Bradford protein assay (FIG. 16). How it is done:
Data presented were based on three independent experiments (n=3). Error bars represent standard error of the mean.
Protein extraction from cardiac tissue. The frozen tissue samples (˜500 mg) were cut into small pieces and washed with PBS buffer containing protease inhibitors and reducing agent (5 mM DTT, 1 mM PMSF, 1× protease inhibitor cocktail). […] The homogenate was centrifuged at 211,750×g using Beckman Ultracentrifuge and a Ti-80 rotor for 1 h. The supernatant after the first HEPES extraction was removed and saved as “E1” extraction. The HEPES extraction was repeated on the resulting pellet and saved as “E2”. After the second HEPES extraction, the tissue pellet was suspended in 25 mM NH4HCO3 and evenly divided into smaller aliquots. In one aliquot, 25 mM NH4HCO3 buffer with no surfactant (NS) was used in a 1:1 ratio (homogenate:buffer) and labeled as “E3”. In the other aliquots, surfactants (1% in 25 mM NH4HCO3) were individually added to the other aliquots in a 1:1 ratio (homogenate:surfactant) and labeled as “E3” following incubation and centrifugation.

4-hexylphenylazosulfonate: the “degradation time upon UV irradiation” value in data set [1] is 30 to 150 s.

Consider `CCCCCCCCCCC(OC(=O)NCCCS(=O)(=O)[O-])c1ccco1.[Na+]` (stereo not drawn) [PM], for which the protein solubilization ability entry in data set [2] is on record as “drastically better protein solubilization ability”.

Take `CCCCCCCCCCCC1(C)OCC(COCCCS(=O)(=O)[O-])O1.[Na+]` (stereo not drawn) [RG]: in data set [2], the protein solubilization ability entry is recorded as “drastically better protein solubilization ability”.
